Assay results as given in patent US20100285959A1, “HERBICIDAL MIXTURES” (priority 2006, published 2010).

Columns and labels:
[1] = test system: kochia (KCHSC); experiment: Test 23 growth chamber, postemergence; type: in vivo, Kochia scoparia; conditions: 21 DAA
Description: (§1) A test was conducted to evaluate the effects on winter barley (HORVW, Hordeum vulgare L.), winter wheat (TRZAW, Triticum aestivum L.), and several weed species of mixtures of Compound 2 with the commercial herbicides (2,4-dichlorophenoxy)acetic acid (2,4-D) and (4-chloro-2-methylphenoxy)acetic acid (MCPA), auxin mimics. […] Plants were treated postemergence at the 2-4 leaf growth stage, and each treatment was replicated three times. […] Plants were watered as needed. […] Results are means of the three replicates.

[2] = test system: corn (ZEAMD); experiment: Test 7 field trial, preemergence; type: in vivo, Zea mays ssp. indentata
Description: (§2) Plots were 7.6 m long by 3.0 m wide with rows spaced 76 cm apart. Seeds were spaced 15 cm apart within the rows. The field was managed using conventional tillage practices. […] Wild radish was evaluated 14 and 28 days after application. […] Results are the means of the three replicates.

[3] = test system: common lambsquarters (CHEAL); experiment: Test 9 field trial, emerged weeds before corn planting; type: in vivo, Chenopodium album; conditions: 57 DAA; g a.i./ha: Cpd 2 100, Glyphosate 1540, Paraquat 1150
Description: Corn seeds (hybrid ‘Pioneer 34M91 RR’) were planted in mid spring season, about 3.8 cm deep in a silty clay loam soil having a pH of 6.7. Plots were 9.1 m long by 3.0 m. The field was managed using no-till practices. […] Compound 2 and paraquat treatments, alone and in combination, also included a surfactant. Glyphosate, alone and with Compound 2, included ammonium sulfate in the treatment mixture. […] The effects on the weeds in the treated plots and untreated control plots were recorded 7, 14, 23, 30 and 57 days after application. Most of the weed species could not be evaluated at every timing. Corn response was only evaluated 57 days after application. […] Results are the means of the three replicates.

[4] = test system: common lambsquarters (CHEAL); experiment: Test 2 field trial, preemergence; type: in vivo, Chenopodium album; design: scale not given here; conditions: 28 DAA
Source text: Corn seeds (hybrid ‘Pioneer 31G96’) were planted in mid spring season, 3.8 cm deep in a clay loam soil having 2% organic matter and a pH of 6.6. Plots were 6.1 m long by 3.0 m wide with rows spaced 76 cm apart. Seeds were spaced 15 cm apart within the rows. The field was managed using conventional tillage practices. […] A few of the weed species could not be evaluated at every timing. […] Results are the means of the three replicates.

[5] = test system: Ipomoea grandiflora (IPOGF); experiment: Test 12 field trial, preemergence; type: in vivo; design: scale not given here; conditions: Cpd 2 or Cpd 1 62 g a.i./ha, Diuron 2000 g a.i./ha
Source text: (§3) In early-mid spring season, corn seeds (hybrid ‘Pioneer 3041’) were planted 5 cm deep and sugarcane nodes (variety RB-72.454) were planted 10 cm deep in separate plots in a clay soil having 2.6% organic matter and a pH of 5.6. Plots were 24 m long by 1.5 m wide with rows spaced 80 cm (corn) or 140 cm (sugarcane) apart. Corn seeds were spaced 15 cm apart and sugarcane nodes were spaced 10 cm apart within the rows. At the same time, weed seeds were broadcast over the surface of separate plots without a crop, one weed species per plot. The weed plots were rotary tilled to incorporate the weed seeds to a variety of depths. The field was managed using conventional tillage practices.

[6] = test system: wild spikenard (HPYSU); experiment: Test 12 field trial, preemergence; type: in vivo; design: scale not given here; conditions: Cpd 2 or Cpd 1 62 g a.i./ha, Diuron 2000 g a.i./ha
Source text: as §3

[7] = test system: field poppy (PAPRH); experiment: Test 21 growth chamber, postemergence; type: in vivo, Papaver rhoeas; conditions: 19 DAA
Description: as §1, with “species,” for “species”, “herbicide” for “herbicides”, “(2,4-D), an” for “(2,4-D) and (4-chloro-2-methylphenoxy)acetic acid (MCPA),”, “mimic.” for “mimics.”, “one time.” for “three times.”, “from single” for “means of the three”

[8] = test system: annual grasses (GGGAN); experiment: Test 7 field trial, preemergence; type: in vivo, Gramineae
Description: as §2

[9] = test system: winter wheat (TRZAW); experiment: Test 23 growth chamber, postemergence; type: in vivo, Triticum aestivum; conditions: 21 DAA
Description: as §1

[10] = test system: winter wheat (TRZAW); experiment: Test 20 growth chamber, postemergence; type: in vivo, Triticum aestivum; conditions: 25 DAA
Description: as §1, with “vulgare L.) and” for “vulgare L.),”, “aestivum L.)” for “aestivum L.), and several weed species”, “the 2-leaf” for “the 2-4 leaf”, “replicated a total of four times (three times in the loam/sand blend and one time in RediEarth).” for “replicated three times.”, “are the” for “are”, “the four” for “the three”

[11] = test system: winter wheat (TRZAW); experiment: Test 19 growth chamber, postemergence; type: in vivo, Triticum aestivum
Description: A test was conducted to evaluate the effects on winter barley (HORVW, Hordeum vulgare L.) and winter wheat (TRZAW, Triticum aestivum L.) of mixtures of Compound 2 with the commercial herbicide (2,4-dichlorophenoxy)acetic acid (2,4-D), an auxin mimic. […] Plants were treated postemergence at the 3-leaf growth stage, and each treatment was replicated four times. […] Plants were watered as needed. […] Results are the means of the four replicates.

[12] = g a.i./ha: Cpd 2 25, Atrazine 250
[13] = g a.i./ha: Cpd 2 50, Atrazine 500
[14] = g a.i./ha: Cpd 2 75, Atrazine 750
[15] = g a.i./ha: Cpd 2 100, Atrazine 1000
[16] = g a.i./ha: Cpd 2 150, Atrazine 1500
[17] = 2,4-D or MCPA alone 250 g a.i./ha

COC(=O)c1nc(C2CC2)nc(N)c1Cl [Compound 2, methyl 6-amino-5-chloro-2-cyclopropyl-4-pyrimidinecarboxylate]
Postemergence KCHSC Obs ([1]; Cpd 2 alone 4 g a.i./ha): 53
Postemergence KCHSC Obs ([1]; Cpd 2 alone 8 g a.i./ha): 60
Postemergence KCHSC Obs ([1]; Cpd 2 alone 16 g a.i./ha): 70
ZEAMD Obs ([2]; hybrid Pioneer 36B10, corn (Zea mays ssp. indentata), in vivo, 62 days after application): 0%
CHEAL Obs [3]: 95%
CHEAL Obs [4, 12]: 90
CHEAL Obs [4, 13]: 100
CHEAL Obs [4, 14]: 100
CHEAL Obs [4, 15]: 100
CHEAL Obs [4, 16]: 100
IPOGF Obs ([5]; 15 DAA): 50
IPOGF Obs ([5]; 29 DAA): 60
IPOGF Obs ([5]; 48 DAA): 40
IPOGF Obs ([5]; 61 DAA): 40
HPYSU Obs ([6]; 15 DAA): 60
HPYSU Obs ([6]; 29 DAA): 60
HPYSU Obs ([6]; 48 DAA): 50
HPYSU Obs ([6]; 61 DAA): 40
Postemergence PAPRH Obs ([7]; Cpd 2 alone 16 g a.i./ha): 65
GGGAN Obs ([8]; 14 DAA, 125 g a.i./ha): 33%
GGGAN Obs ([8]; 14 DAA, 250 g a.i./ha): 65%
GGGAN Obs ([8]; 14 DAA, 500 g a.i./ha): 67%
GGGAN Obs ([8]; 28 DAA, 125 g a.i./ha): 33%
GGGAN Obs ([8]; 28 DAA, 250 g a.i./ha): 48%
GGGAN Obs ([8]; 28 DAA, 500 g a.i./ha): 52%
GGGAN Obs ([8]; 62 DAA, 125 g a.i./ha): 0%
GGGAN Obs ([8]; 62 DAA, 250 g a.i./ha): 0%
GGGAN Obs ([8]; 62 DAA, 500 g a.i./ha): 0%
Postemergence TRZAW Obs ([9]; Cpd 2 alone 4 g a.i./ha): 35
Postemergence TRZAW Obs ([9]; Cpd 2 alone 8 g a.i./ha): 38
Postemergence TRZAW Obs ([9]; Cpd 2 alone 16 g a.i./ha): 43
Postemergence TRZAW Obs ([10]; Cpd 2 alone 4 g a.i./ha): 23
Postemergence TRZAW Obs ([10]; Cpd 2 alone 8 g a.i./ha): 28
Postemergence TRZAW Obs ([10]; Cpd 2 alone 16 g a.i./ha): 35
TRZAW Obs ([11]; in vivo): 43

O=C(O)CNCP(=O)(O)O [Glyphosate]
CHEAL Obs [3]: 0%

O=C(O)COc1ccc(Cl)cc1Cl [2,4-D, (2,4-dichlorophenoxy)acetic acid]
Postemergence KCHSC Obs [1, 17]: 70
Postemergence PAPRH Obs ([7]; 2,4-D alone 125 g a.i./ha): 35
Postemergence PAPRH Obs ([7]; 2,4-D alone 250 g a.i./ha): 35
Postemergence TRZAW Obs [9, 17]: 20
Postemergence TRZAW Obs [10, 17]: 18
TRZAW Obs ([11]; Postemergence, 17 DAA, g a.i./ha: Cpd 2 16, 2,4-D 250): 23
TRZAW Obs ([11]; Postemergence, 17 DAA, g a.i./ha: Cpd 2 16, 2,4-D 500): 23
TRZAW Obs ([11]; Postemergence, 17 DAA, g a.i./ha: Cpd 2 16, 2,4-D 1000): 25

Nc1nc(C2CC2)nc(C(=O)O)c1Cl [Compound 1, 6-amino-5-chloro-2-cyclopropyl-4-pyrimidinecarboxylic acid]
IPOGF Obs ([5]; 15 DAA): 60
IPOGF Obs ([5]; 29 DAA): 70
IPOGF Obs ([5]; 48 DAA): 60
IPOGF Obs ([5]; 61 DAA): 40
HPYSU Obs ([6]; 15 DAA): 60
HPYSU Obs ([6]; 29 DAA): 60
HPYSU Obs ([6]; 48 DAA): 70
HPYSU Obs ([6]; 61 DAA): 50

CCNc1nc(Cl)nc(NC(C)C)n1 [Atrazine, atrazine, reference compound]
CHEAL Obs [4, 12]: 100
CHEAL Obs [4, 13]: 100
CHEAL Obs [4, 14]: 100
CHEAL Obs [4, 15]: 100
CHEAL Obs [4, 16]: 100

CCc1cccc(C)c1N(C(=O)CCl)[C@@H](C)COC [S-Metolachlor, S-metolachlor, reference compound]
ZEAMD Obs ([2]; 14 DAA, 1000 g a.i./ha): 10%
ZEAMD Obs ([2]; 28 DAA, 1000 g a.i./ha): 8%
ZEAMD Obs ([2]; 62 DAA, 1000 g a.i./ha): 0%
GGGAN Obs ([8]; 14 DAA, 1000 g a.i./ha): 97%
GGGAN Obs ([8]; 28 DAA, 1000 g a.i./ha): 93%
GGGAN Obs ([8]; 62 DAA, 1000 g a.i./ha): 75%
